The source of these data is patent publication US6753337B2, “Alkynyl containing hydroxamic acid compounds as matrix metalloproteinase/tace inhibitors” (Wyeth Holdings Corporation, priority 1999, dated 2004).

Where a name gives a salt, the structure may show the parent alone.

Usually melting point stands for the temperature of the solid-liquid transition. Turning to `CC#CCOc1ccc(S(=O)(=O)C2(C(=O)NO)CCN(Cc3ccc(Cl)c(Cl)c3)CC2)cc1` (as salt: HCl) [Example 10, 4-(4-But-2-ynyloxy-benzenesulfonyl)-1-(3,4-dichloro-benzyl)-piperidine-4-carboxylic acid hydroxyamide], the melting point came out at 213 °C. In the case of `CCCCCC#CCOc1ccc(S(=O)(=O)C2(C(=O)NO)CCN(Cc3ccc(Br)cc3)CC2)cc1` (as salt: hydrochloride) [Example 6, 1-(4-Bromo-benzyl)-4-(4-oct-2-ynyloxy-benzenesulfonyl)-piperdine-4-carboxylic acid hydroxyamide], the melting point is 140 °C.
